Assay results published in patent publication US12285422B2, “Uses of piperidinyl-indole derivatives” (priority 2017, dated 2025).

Tests used:
[1] = tested on: human microvascular endothelial cell line (HMEC-1); experiment: C3 deposition on ADP-activated HMEC-1 exposed to STEC-HUS patient serum; type: cell-based; details: for reduction of C3 deposition on ADP-activated HMEC-1: STEC-HUS patient serum, 4 hours, p<0.0001
Method: As described in Morigi et al., 2011 (Morigi M, Galbusera M, Gastoldi S, Locatelli, M, Buelli, S, Pezzotta A, Pagani C, Noris M, Gobbi M, Stravalaci M, Rottoli D, Tedesco F, Remuzzi G and Joja C: 2011. Alternative pathway activation of complement by Shiga toxin promotes exuberant C3a formation that triggers microvascular thrombosis. J Immunol. 187(1):172-80), human microvascular endothelial cell line of dermal origin (HMEC-1, ATCC CRL-3243) were plated on glass slides and used when confluent. […]. At the end of the incubation step HMEC-1 were treated with fluorochrome-conjugated anti-human C3c. In each experiment, a pool of sera from healthy controls was tested in parallel with patient serum. A confocal inverted laser microscope was used for acquisition of the fluorescent staining on endothelial cell surface.
Fifteen fields per sample were acquired and the area occupied by the fluorescent staining was evaluated by automatic edge detection using built-in specific functions of the software Image J and expressed as pixel2 per field analyzed. The highest and lowest values were discarded and the mean±SE was calculated on the remaining 13 fields.
Results: Serum from patients with acute STEC-HUS induced a massive C3 deposition on ADP-activated endothelial cells in respect to sera from healthy controls (P<0.0001). […].

[2] = tested on: passive Heymann nephritis in rats; experiment: Passive Heymann nephritis in rats (model for membranous nephropathy); type: in vivo, rat; details: for combined histopathology score: p<0.005; for reduction of proteinuria: twice daily oral gavage, 14 days post transfer, p<0.0001; for proteinuria: 60 mg/kg twice daily oral gavage starting 6 days post serum transfer
Excerpt: 4. FB Inhibitor Prevents the Development and Progression of Passive Heymann Nephritis in Rats
Passive Heymann nephritis in the rat is the most common animal model for membranous nephropathy (see Jefferson J A, Pippin J W and Shankland S J 2010. Experimental Models of membranous nephropathy. Drug Discov Today Dis Models. 7(1-2):27-33). It is induced by the transfer of a polyclonal serum derived from rabbits immunized with rat megalin and manifests inflammatory changes in the kidney that are highly reminiscent with the human disease. Significant proteinuria is observed 4 days after the antibody transfer and increases until 2 weeks post transfer.

Q: How did the “reduction of C3 deposition on ADP-activated HMEC-1” value ([1]; 1 microM) turn out when `CCO[C@H]1CCN(Cc2c(OC)cc(C)c3[nH]ccc23)[C@H](c2ccc(C(=O)O)cc2)C1` [compound of embodiment 5, 4-((2S,4S)-4-ethoxy-1-((5-methoxy-7-methyl-1H-indol-4-yl)methyl)piperidin-2-yl)benzoic acid] was run?
A: 73%

Q: What about the “reduction of C3 deposition on ADP-activated HMEC-1” value ([1]; 10 microM) of the same compound?
A: 89%

Q: And the “C3 deposits on endothelial cells versus cells exposed to control sera” value ([1]; 10 microM, STEC-HUS serum)?
A: did not significantly differ

Q: What about the combined histopathology score ([2]; prophylactic, 20 mg/kg, vehicle 2.2) of the same compound?
A: 0.3

Q: What about the combined histopathology score ([2]; prophylactic, 60 mg/kg, vehicle 2.2) of the same compound?
A: 0.4

Q: And the reduction of proteinuria ([2]; prophylactic, 20 mg/kg/d)?
A: 82%

Q: And the reduction of proteinuria ([2]; prophylactic, 60 mg/kg/d)?
A: 75%

Q: What about the proteinuria ([2]; therapeutic, day 6 (control 0.79)) of the same compound?
A: 0.74

Q: What about the proteinuria ([2]; therapeutic, day 14 (control 1.93)) of the same compound?
A: 0.81

Q: What about the “effect on disease progression” value ([2]; therapeutic, 60 mg/kg twice daily oral gavage starting after manifestation of proteinuria (6 days post serum transfer)) of the same compound?
A: blocked further progression of the disease

Q: And the combined histopathology score ([2]; therapeutic, 60 mg/kg twice daily oral gavage starting day 6, vehicle 2.7)?
A: 1.1
